IC50 and inhibition data for 16 molecules are collected here from US11952363B2, “Piperazine compounds for the treatment of autoimmune disease” (Hoffmann-La Roche Inc., priority 2018, dated 2024).

pIC50: −log10 of the molar value.

For one data set, the target named is T1, human TLR7 (Homo sapiens, UniProt Q9NYK1).
T1 sequence (Q9NYK1 27-1049): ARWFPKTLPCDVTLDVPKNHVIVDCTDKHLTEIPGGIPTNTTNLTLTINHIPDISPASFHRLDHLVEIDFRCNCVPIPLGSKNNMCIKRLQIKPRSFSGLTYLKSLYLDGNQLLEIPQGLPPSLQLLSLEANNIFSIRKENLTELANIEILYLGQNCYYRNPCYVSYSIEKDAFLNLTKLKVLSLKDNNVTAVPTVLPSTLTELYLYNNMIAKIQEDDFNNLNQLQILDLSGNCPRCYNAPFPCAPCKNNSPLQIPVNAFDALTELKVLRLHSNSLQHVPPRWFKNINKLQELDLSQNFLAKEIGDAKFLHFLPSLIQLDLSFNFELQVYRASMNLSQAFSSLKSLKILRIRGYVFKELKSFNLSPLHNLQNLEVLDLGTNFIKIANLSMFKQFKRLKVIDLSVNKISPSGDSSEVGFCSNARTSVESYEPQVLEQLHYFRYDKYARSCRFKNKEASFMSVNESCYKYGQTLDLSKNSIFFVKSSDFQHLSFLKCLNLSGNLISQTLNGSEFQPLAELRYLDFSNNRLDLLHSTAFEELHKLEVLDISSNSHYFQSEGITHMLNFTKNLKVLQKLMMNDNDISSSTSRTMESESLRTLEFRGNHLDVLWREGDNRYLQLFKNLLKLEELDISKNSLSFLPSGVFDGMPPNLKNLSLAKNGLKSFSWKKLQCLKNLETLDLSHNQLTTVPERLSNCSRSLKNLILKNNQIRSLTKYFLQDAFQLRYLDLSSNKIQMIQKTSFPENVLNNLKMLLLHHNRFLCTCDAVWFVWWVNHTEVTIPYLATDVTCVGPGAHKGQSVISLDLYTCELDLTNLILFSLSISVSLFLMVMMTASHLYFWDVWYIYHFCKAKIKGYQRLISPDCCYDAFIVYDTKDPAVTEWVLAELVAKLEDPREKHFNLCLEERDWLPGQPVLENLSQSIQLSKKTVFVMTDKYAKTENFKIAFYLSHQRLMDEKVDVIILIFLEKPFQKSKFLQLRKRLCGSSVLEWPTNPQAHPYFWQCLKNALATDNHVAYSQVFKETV
Put plainly: HEK293-Blue-hTLR-7 cells assay (SEAP reporter, R848 stimulation). It is filed as cell-based. Particulars: HEK293-Blue-hTLR7 cells, R848 ligand, 20 hrs incubation; read-out: HEK/hTLR7 IC50. The method, then: The following tests were carried out in order to determine the activity of the compounds of formula (I) in HEK293-Blue-hTLR-7/8/9 cells assay.
A stable HEK293-Blue-hTLR-7 cell line was purchased from InvivoGen (Cat.#: hkb-htlr7, San Diego, California, USA). These cells were originally designed for studying the stimulation of human TLR7 by monitoring the activation of NF-κB. A SEAP (secreted embryonic alkaline phosphatase) reporter gene was placed under the control of the IFN-β minimal promoter fused to five NF-κB and AP-1-binding sites. The SEAP was induced by activating NF-κB and AP-1 via stimulating HEK-Blue hTLR7 cells with TLR7 ligands. Therefore the reporter expression was declined by TLR7 antagonist under the stimulation of a ligand, such as R848 (Resiquimod), for incubation of 20 hrs. The cell culture supernatant SEAP reporter activity was determined using QUANTI-Blue™ kit (Cat.#: rep-qb1, Invivogen, San Diego, Ca, USA) at a wavelength of 640 nm, a detection medium that turns purple or blue in the presence of alkaline phosphatase.
HEK293-Blue-hTLR7 cells were incubated at a density of 250,000˜450,000 cells/mL in a volume of 170 μL in a 96-well plate in Dulbecco's Modified Eagle's medium (DMEM) containing 4.5 g/L glucose, 50 U/mL penicillin, […], […], 2 mM L-glutamine, 10% (v/v) heat-inactivated fetal bovine serum with addition of 20 μL test compound in a serial dilution in the presence of final DMSO at 1% and 10 μL of 20 uM R848 in above DMEM, perform incubation under 37° C. in a CO2 incubator for 20 hrs. Then 20 μL of the supernatant from each well was incubated with […] Quanti-blue substrate solution at 37° C. for 2 hrs and the absorbance was read at 620-655 nm using a spectrophotometer. The signalling pathway that TLR7 activation leads to downstream NF-κB activation has been widely accepted, and therefore similar reporter assay was modified for evaluating TLR7 antagonist.

The target in another data set is T2, CYP2D6 (Homo sapiens, UniProt P10635).
T2 construct: tissue BD-Gentest 452117; host or cells: human liver microsomes
T2 sequence (P10635 whole entry): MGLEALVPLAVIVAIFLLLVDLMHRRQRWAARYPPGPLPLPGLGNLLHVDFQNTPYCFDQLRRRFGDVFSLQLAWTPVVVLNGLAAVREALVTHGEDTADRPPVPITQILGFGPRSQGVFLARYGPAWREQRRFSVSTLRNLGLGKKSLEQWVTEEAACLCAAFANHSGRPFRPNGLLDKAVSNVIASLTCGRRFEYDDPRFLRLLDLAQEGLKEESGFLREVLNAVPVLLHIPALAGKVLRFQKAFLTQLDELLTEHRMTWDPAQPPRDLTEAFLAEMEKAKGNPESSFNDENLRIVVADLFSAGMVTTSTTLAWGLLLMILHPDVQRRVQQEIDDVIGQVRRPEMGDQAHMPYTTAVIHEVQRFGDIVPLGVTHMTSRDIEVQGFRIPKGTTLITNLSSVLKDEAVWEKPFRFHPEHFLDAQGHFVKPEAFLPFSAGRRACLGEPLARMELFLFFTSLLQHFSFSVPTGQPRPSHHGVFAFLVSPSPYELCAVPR
The data set can be described thus: CYP inhibition assay in human liver microsome. It is filed as in vitro ADME. Particulars: liver microsomes, probe dextromethorphan, 10 μM compound, dextromethorphan substrate, percentage inhibition < 0: not or weak inhibitor, read-out: CYP 2D6 inhibition % @10 μM. The method, then: This is a high throughput screening assay used for assessment of reversible inhibition of CYP2D6 activity of test compounds in human liver microsome (HLM) in early discovery stage.
10 mM DMSO stock solutions of test compounds were diluted in DMSO to generate 2 mM intermediate stock solution. 250 nL of intermediate stock solution were transferred in duplicate into 3 separate 384 well microtitre plates (assay-ready plates). A mixture of HLM and each substrate was made up. 45 μL of HLM substrate mix was then transferred to each well of an assay ready plate and mixed. The negative (solvent) and positive control (standard inhibitor for CYP 2D6) were included in each assay ready plate. The assay ready plate was warmed to 37° C. in an incubator over 10 minutes. 5μL pre-warmed NADPH regenerating system was added to each incubation well to start the reaction. Final incubation volume was 50 μL. The assay plate then was placed back in the 37° C. incubator. After 10 minutes incubation, incubates were quenched by addition of 50 μL 100% acetonitrile containing internal standards (20 ng/mL D3-Dextrorphan). The supernatants were collected for RapidFire/MS/MS analysis.
RapidFire online solid phase extraction/sample injection system (Agilent) coupled with API4000 triple quadrupole mass spectrometer (AB Sciex) were used for sample analysis. The mobile phase composed of acetonitrile and water supplemented with 0.1% formic acid. A C4 solid phase extraction cartridge is used for sample separation. MS detection is achieved in positive ion MRM mode.
Peak areas for substrate, metabolite and internal standard are determined using the RapidFire integrator software (version 3.6.12009.12296). Peak area ratios (PAR) of metabolite and internal standard (stable-labelled metabolite) are then calculated. The measurement window for each experiment is then defined:
PAR (0% activity)=average PAR for all incubations containing concentrated inhibitor;
Par (100% activity)=average PAR for all incubations containing no inhibitor (DMSO controls);
% Activity (test inhibitor)
=[PAR(test inhibitor)-PAR(0% activity)]/[PAR(100% activity)-PAR(0% activity)];
% Inhibition (test inhibitor)=100-% Activity (test inhibitor).

For `C[C@@H]1CN(c2ccc(C#N)c3ncccc23)C[C@H](C)N1CC(=O)N1Cc2ccc(N3CCNCC3)cc2C1` [Example 16, 5-[(3R,5S)-3,5-Dimethyl-4-[2-oxo-2-(5-piperazin-1-ylisoindolin-2-yl)ethyl]piperazin-1-yl]quinoline-8-carbonitrile], on human TLR7, the pIC50 is 7.46. Besides, the inhibition at 10 min, 10 µM at CYP2D6 is 2%.

For `C[C@@H]1CN(c2ccc(C#N)c3ncccc23)C[C@H](C)N1Cc1ccc(N2CCN(C)CC2)cn1` [Example 7, 5-[(3S,5R)-3,5-dimethyl-4-[[5-(4-methylpiperazin-1-yl)-2-pyridyl]methyl]piperazin-1-yl]quinoline-8-carbonitrile], the pIC50 at human TLR7 is 7.52.

Turning to `C[C@@H]1CN(c2ccc(C#N)c3ncccc23)C[C@H](C)N1Cc1ccc(N2CCNCC2)nc1` [Example 3, 5-[(3R,5S)-3,5-Dimethyl-4-[(6-piperazin-1-yl-3-pyridyl)methyl]piperazin-1-yl]quinoline-8-carbonitrile], at human TLR7, the pIC50 was 7.72. For the same molecule, the inhibition at 10 min, 10 µM on CYP2D6 was -2.5%.

Regarding `CC1CN(c2ccc(C#N)c3ncccc23)CCN1CC(=O)N1CCC(C2CCN(C)CC2)CC1` (centres unmarked) [Example 19, 5-[3-methyl-4-[2-[4-(1-methyl-4-piperidyl)-1-piperidyl]-2-oxo-ethyl]piperazin-1-yl]quinoline-8-carbonitrile], the pIC50 on human TLR7 was 7.24. The inhibition at 10 min, 10 µM on CYP2D6 came to 14.5%.

`C[C@@H]1CN(c2ccc(C#N)c3ncccc23)C[C@H](C)N1Cc1ccc(N2CCNCC2CO)cc1` (stereo partly drawn) [Example 12, 5-[(3R,5S)-4-[[4-[2-(Hydroxymethyl)piperazin-1-yl]phenyl]methyl]-3,5-dimethyl-piperazin-1-yl]quinoline-8-carbonitrile]: on human TLR7, the pIC50 is 7.06.

For `CC1CN(c2ccc(C#N)c3ncccc23)CCN1CC(=O)Nc1ccc(N2CCNCC2)cc1` (centres unmarked) [Example 17, 2-[4-(8-Cyano-5-quinolyl)-2-methyl-piperazin-1-yl]-N-(4-piperazin-1-ylpheny)acetamide], the pIC50 at human TLR7 is 7.06. Also, on CYP2D6, the inhibition at 10 min, 10 µM was 7%.

As to `C[C@@H]1CN(c2ccc(C#N)c3ncccc23)C[C@H](C)N1CC(=O)N1CCc2cc(N3CCNCC3)ccc2C1` [Example 14, 5-[(3R,5S)-3,5-Dimethyl-4-[2-oxo-2-(6-piperazin-1-yl-3,4-dihyrdo-1H-isoquinolin-2-yl)ethyl]piperazin-1-yl]quinoline-8-carbonitrile], the pIC50 at human TLR7 was 7.10.

In the case of `C[C@@H]1CN(c2ccc(C#N)c3ncccc23)C[C@H](C)N1Cc1ccc(N2CC3CNCC(C2)O3)cn1` [Example 8, 5-[(3S,5R)-3,5-Dimethyl-4-[[5-(9-oxa-3,7-diazabicyclo[3.3.1]nonan-3-yl)-2-pyridyl]methyl]piperazin-1-yl]quinoline-8-carbonitrile], on human TLR7, the pIC50 was 7.11. The inhibition at 10 min, 10 µM on CYP2D6 stood at 12.5%.

For the molecule `C[C@@H]1CN(c2ccc(C#N)c3ncccc23)C[C@H](C)N1Cc1ncc(N2CCN(C(=O)CN(C)C)CC2)cn1` [Example 6, 5-[(3S,5R)-4-[[5-[4-[2-(Dimethylamino)acetyl]piperazin-1-yl]pyrimidin-2-yl]methyl]-3,5-dimethyl-piperazin-1-yl]quinoline-8-carbonitrile], the pIC50 on human TLR7 is 7.17. The inhibition at 10 min, 10 µM at CYP2D6 amounted to 5%.

Turning to `C[C@@H]1CN(c2ccc(C#N)c3ncccc23)C[C@H](C)N1CC(=O)N1CCc2nc(N3CCNCC3)ccc2C1` [Example 13, 5-[(3R,5S)-3,5-Dimethyl-4-[2-oxo-2-(2-piperazin-1-yl-7,8-dihydro-5H-1,6-naphthyridin-6-yl)ethyl]piperazin-1-yl]quinoline-8-carbonitrile], the pIC50 on human TLR7 was 7.25.

`C[C@@H]1CN(c2ccc(C#N)c3ncccc23)C[C@H](C)N1Cc1ccc(N2CCN(C(=O)CN(C)C)CC2)cn1` [Example 11, 5-[(3S,5R)-4-[[5-[4-[2-(Dimethylamino)acetyl]piperazin-1-yl]-2-pyridyl]methyl]-3,5-dimethyl-piperazin-1-yl]quinoline-8-carbonitrile]: the pIC50 on human TLR7 was 7.30. Moreover, the inhibition at 10 min, 10 µM at CYP2D6 worked out at 23%.

For the molecule `C[C@@H]1CN(c2ccc(C#N)c3ncccc23)C[C@H](C)N1Cc1ccc(N2CCNCC2)cc1` [Example 1, 5-[(3R,5S)-3,5-Dimethyl-4-[(4-piperazin-1-ylphenyl)methyl]piperazin-1-yl]quinoline-8-carbonitrile], the pIC50 at human TLR7 is 7.28. Further, the inhibition at 10 min, 10 µM on CYP2D6 came out at 17%.

Take `C[C@@H]1CN(c2ccc(C#N)c3ncccc23)C[C@H](C)N1Cc1ncc(N2CCNCC2)cn1` [Example 4, 5-[(3S,5R)-3,5-Dimethyl-4-[(5-piperazin-1-ylpyrimidin-2-yl)methyl]piperazin-1-yl]quinoline-8-carbonitrile]: at human TLR7, the pIC50 is 7.80.

With `C[C@@H]1CN(c2ccc(C#N)c3ncccc23)C[C@@H](C)N1Cc1ccc(N2CCNCC2)cc1` [Example 2], at human TLR7, the pIC50 was 7.06.

For `C[C@@H]1CN(c2ccc(C#N)c3ncccc23)C[C@H](C)N1Cc1ccc(N[C@@H]2CNC[C@@H]2F)cn1` [Example 9, 5-[(3R,5S)-3,5-Dimethyl-4-[[5-[[(3R,4S)-4-fluoropyrrolidin-3-yl]amino]-2-pyridyl]methyl]piperazin-1-yl]quinoline-8-carbonitrile], the pIC50 on human TLR7 is 7.29. The inhibition at 10 min, 10 µM on CYP2D6 is -6.5%.

As for `C[C@@H]1CN(c2ccc(C#N)c3ncccc23)C[C@H](C)N1CC(=O)N1CCc2ccc(N3CCNCC3)cc2C1` [Example 15, 5-[(3R,5S)-3,5-dimethyl-4-[2-pxp-2-(7-piperazin-1-yl-3,4-dihydro-1H-isoquinolin-2-yl)ethyl]piperazin-1-yl]quinoline-8-carbonitrile], the pIC50 at human TLR7 was 7.17. In addition, at CYP2D6, the inhibition at 10 min, 10 µM is 19%.
